Laboratory results from patent US9561228B2 (Celgene Avilomics Research, Inc., priority 2013, dated 2017).

What was measured:
[1] = biological target: T1, MEK1 activated ERK1 (Homo sapiens, UniProt P27361); assay: Omnia continuous-read kinase assay for potency against MEK1 activated ERK1; type: biochemical; conditions: MEK1 activated ERK1, ATP at KM; read-out: ERK1 Omnia WT ATP KM IC50
T1 construct: purchased Millipore (Billerica, Mass.) 14-439-K
In short: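 Apparent IC50 came from initial reaction slopes (RFU vs time) plotted against log inhibitor with a variable-slope fit. Reactions were started with ERK1 (4 nM final) added to 50 μM ATP, roughly at its appKM, and 10 μM Sox-conjugated ST17 peptide in 20 mM Tris pH 7.5, 5 mM MgCl2. Fluorescence was monitored every 71 seconds.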

[2] = test system: ERK1/2 phosphorylation of p90RSK in HT29 cells; assay: pRSK MSD Assay in HT29 cells; type: cell-based; conditions: Homo sapiens, HT-29, read-out: ERK1/ERK2 PRSK MSD HT29 EC50
In short: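 Serum-starved HT29 cells (0.1% FBS overnight) treated with test compound for 120 min at 37° C, then lysed with protease and phosphatase inhibitors. Phospho-p90RSK quantified by MSD sandwich immunoassay: RSK capture antibody, phospho-RSK detection antibody plus Sulfo-tagged antibody, electrochemiluminescence read.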

[3] = test system: A375 cells (malignant melanoma); assay: Inhibition of cancer cell proliferation, A375 (CellTiterGlo, 72 hours); type: cell-based; conditions: Homo sapiens, A-375
In short: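 A375 melanoma cells, 3000/well, exposed 72 h at 37 °C to compound in 3-fold serial dilutions (solution added as 2× stock starting at 5,000 nM in serum-free DMEM). CellTiterGlo luminescence converted to cell number via standard curve; % inhibition vs untreated control, GI50 from curve fit.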

T1 sequence (P27361 whole entry): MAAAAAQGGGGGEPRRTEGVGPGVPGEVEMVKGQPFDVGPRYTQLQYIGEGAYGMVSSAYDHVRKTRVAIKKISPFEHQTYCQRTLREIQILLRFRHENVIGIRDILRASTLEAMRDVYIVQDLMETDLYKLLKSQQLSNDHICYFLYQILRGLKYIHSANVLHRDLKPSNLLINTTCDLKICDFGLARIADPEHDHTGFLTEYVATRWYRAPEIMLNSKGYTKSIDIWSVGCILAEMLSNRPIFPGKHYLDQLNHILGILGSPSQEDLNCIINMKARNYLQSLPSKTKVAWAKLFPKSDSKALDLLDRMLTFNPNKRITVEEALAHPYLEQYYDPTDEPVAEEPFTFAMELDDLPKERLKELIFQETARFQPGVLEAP

SMILES | IC50 [1] [nM] | EC50 [2] [nM] | GI50 [3] [nM]
C=CC(=O)Nc1ccccc1Nc1nc(Nc2cc(OC)nc(OCCOC)c2)ncc1C(F)(F)F [Compound I-283, N-(2-((2-((2-Methoxy-6-(2-methoxyethoxyl)pyridin-4-yl)amino)-5-(trifluoromethyl)pyrimidin-4-yl)amino)phenyl)acrylamide] |  | < 100 | < 100
C=CC(=O)Nc1ccccc1Nc1nc(Nc2cc(OC)nc(OC)c2)ncc1C(F)(F)F [Compound I-95, N-(2-((2-((2,6-Dimethoxypyridin-4-yl)amino)-5-(trifluoromethyl)pyrimidin-4-yl)amino)phenyl)acrylamide] |  | < 100 | < 100
C=CC(=O)Nc1cc(OC)ccc1Nc1nc(Nc2cc(OC)nc(N3CCN(CC)CC3)c2)ncc1C(F)(F)F [Compound I-88, N-(2-((2-((2-(4-Ethylpiperazin-1-yl)-6-methoxypyridin-4-yl)amino)-5-(trifluoromethyl)pyrimidin-4-yl)amino)-5-methoxyphenyl)acrylamide] |  | 101 to 500 | < 100
C=CC(=O)Nc1cc(C)ccc1Nc1nc(N[C@H]2CCCN(C(=O)CO)C2)ncc1Cl [Compound I-140, (S)—N-(2-((5-chloro-2-((1-(2-hydroxyacetyl)piperidin-3-yl)amino)pyrimidin-4-yl)amino)-5-methylphenyl)acrylamide] |  | < 100 | < 100
C=CC(=O)Nc1ccccc1Nc1nc(Nc2ccnc(F)c2)ncc1C(F)(F)F [Compound I-287, N-(2-((2-((2-Fluoropyridin-4-yl)amino)-5-(trifluoromethyl)pyrimidin-4-yl)amino)phenyl)acrylamide] | 101 to 500 | < 100 | 
C=CC(=O)Nc1ccccc1Nc1nc(Nc2cc(C(N)=O)ccc2C)ncc1C(F)(F)F [Compound I-68, 3-(4-(2-Acrylamidophenylamino)-5-(trifluoromethyl)pyrimidin-2-ylamino)-4-methylbenzamide] |  | < 100 | < 100
C=CC(=O)Nc1cc(OC)ccc1Nc1nc(Nc2cc(OC)nc(N3CCN(C)CC3)c2)ncc1C(F)(F)F [Compound I-334, N-(5-methoxy-2-((2-((2-methoxy-6-(4-methylpiperazin-1-yl)pyridin-4-yl)amino)-5-(trifluoromethyl)pyrimidin-4-yl)amino)phenyl)acrylamide] |  | < 100 | < 100
C=CC(=O)Nc1ccccc1Nc1nc(Nc2cc(F)ccc2C)ncc1C(F)(F)F [Compound I-285, N-(2-((2-((5-Fluoro-2-methylphenyl)amino)-5-(trifluoromethyl)pyrimidin-4-yl)amino)phenyl)acrylamide] | 501 to 999 | 101 to 500 | 
C=CC(=O)Nc1cc(OC)ccc1Nc1nc(N[C@H]2CCCN(C(=O)CO)C2)ncc1C(F)(F)F [Compound I-64, (S)—N-(2-((2-((1-(2-Hydroxyacetyl)piperidin-3-yl)amino)-5-(trifluoromethyl)pyrimidin-4-yl)amino)-5-methoxyphenyl)acrylamide] |  | < 100 | < 100
C=CC(=O)Nc1ccccc1Nc1nc(Nc2cc(OC)nc(N3CCN(C)CC3)c2)ncc1C(F)(F)F [Compound I-324, N-(2-((2-((2-methoxy-6-(4-methylpiperazin-1-yl)pyridin-4-yl)amino)-5-(trifluoromethyl)pyrimidin-4-yl)amino)phenyl)acrylamide] |  |  | < 100
C=CC(=O)Nc1ccccc1Nc1nc(Nc2cc(NCCOC)nc(OC)c2)ncc1C(F)(F)F [Compound I-286, N-(2-((2-((2-Methoxy-6-((2-methoxyethyl)amino)pyridin-4-yl)amino)-5-(trifluoromethyl)pyrimidin-4-yl)amino)phenyl)acrylamide] |  | < 100 | < 100
C=CC(=O)Nc1cc(C)ccc1Nc1nc(Nc2cc(OC)nc(N3CC(O)C3)c2)ncc1C(F)(F)F [Compound I-328, N-(2-((2-((2-(3-hydroxyazetidin-1-yl)-6-methoxypyridin-4-yl)amino)-5-(trifluoromethyl)pyrimidin-4-yl)amino)-5-methylphenyl)acrylamide] |  | < 100 | < 100
C=CC(=O)Nc1cc(OC)ccc1Nc1nc(Nc2cc(OC)nc(N3CCN(C(C)=O)CC3)c2)ncc1C(F)(F)F [Compound I-91, N-(2-((2-((2-(4-Acetylpiperazin-1-yl)-6-methoxypyridin-4-yl)amino)-5-(trifluoromethyl)pyrimidin-4-yl)amino)-5-methoxyphenyl)acrylamide] |  | 101 to 500 | < 100

Continued, values first:

IC50 [1] [nM] | EC50 [2] [nM] | GI50 [3] [nM] | SMILES
101 to 500 | < 100 |  | C=CC(=O)Nc1cc(C)ccc1Nc1nc(Nc2cc(C)nc(OC)c2)ncc1C(F)(F)F [Compound I-295, N-(2-((2-((2-methoxy-6-methylpyridin-4-yl)amino)-5-(trifluoromethyl)pyrimidin-4-yl)amino)-5-methylphenyl)acrylamide]
 | < 100 | < 100 | C=CC(=O)Nc1cc(OC)ccc1Nc1nc(Nc2cc(OC)ncc2C)ncc1C(F)(F)F [Compound I-284, N-(5-Methoxy-2-((2-((2-methoxy-5-methylpyridin-4-yl)amino)-5-(trifluoromethyl)pyrimidin-4-yl)amino)phenyl)acrylamide]
 | < 100 | < 100 | C=CC(=O)Nc1cc(OC)ccc1Nc1nc(Nc2cc(OC)ncc2C)ncc1Cl [Compound I-242, N-(2-((5-chloro-2-((2-methoxy-5-methylpyridin-4-yl)amino)pyrimidin-4-yl)amino)-5-methoxyphenyl)acrylamide]
101 to 500 | 101 to 500 | < 100 | C=CC(=O)Nc1cc(C)ccc1Nc1nc(Nc2cc(OC)nc(N3CCN(C)CC3)c2)ncc1C(F)(F)F [Compound I-325, N-(2-((2-((2-methoxy-6-(4-methylpiperazin-1-yl)pyridin-4-yl)amino)-5-(trifluoromethyl)pyrimidin-4-yl)amino)-5-methylphenyl)acrylamide]
 |  | < 100 | C=CC(=O)Nc1cc(C)ccc1Nc1nc(Nc2cc(OC)cc(OC)c2)ncc1C(F)(F)F [Compound I-339, N-(2-((2-((3,5-dimethoxyphenyl)amino)-5-(trifluoromethyl)pyrimidin-4-yl)amino)-5-methylphenyl)acrylamide]
< 100 |  | < 100 | C=CC(=O)Nc1ccccc1Nc1nc(Nc2cc(N[C@H]3CC[C@@H](O)CC3)nc(OC)c2)ncc1C(F)(F)F [Compound I-292]
 | < 100 | < 100 | C=CC(=O)Nc1cc(C)ccc1Nc1nc(Nc2cc(OC)nc(N3CCN(C(C)=O)CC3)c2)ncc1Cl [Compound I-296, N-(2-((2-((2-(4-acetylpiperazin-1-yl)-6-methoxypyridin-4-yl)amino)-5-chloropyrimidin-4-yl)amino)-5-methylphenyl)acrylamide]
 | < 100 | < 100 | C=CC(=O)Nc1ccccc1Nc1nc(Nc2cc(OC)nc(N3CCCC3)c2)ncc1C(F)(F)F [Compound I-281, N-(2-((2-((2-Methoxy-6-(pyrrolidin-1-yl)pyridin-4-yl)amino)-5-(trifluoromethyl)pyrimidin-4-yl)amino)phenyl)acrylamide]
501 to 999 | 101 to 500 |  | C=CC(=O)Nc1cc(C)ccc1Nc1nc(Nc2ccnc(F)c2)ncc1C(F)(F)F [Compound I-288, N-(2-((2-((2-Fluoropyridin-4-yl)amino)-5-(trifluoromethyl)pyrimidin-4-yl)amino)-5-methylphenyl)acrylamide]
 | < 100 | < 100 | C=CC(=O)Nc1ccccc1Nc1nc(Nc2cc(OC)nc(N3CCS(=O)(=O)CC3)c2)ncc1C(F)(F)F [Compound I-291, N-(2-((2-((2-(1,1-Dioxidothiomorpholino)-6-methoxypyridin-4-yl)amino)-5-(trifluoromethyl)pyrimidin-4-yl)amino)phenyl)acrylamide]
 | < 100 | < 100 | C=CC(=O)Nc1cc(F)ccc1Nc1nc(Nc2cc(OC)ncc2C)ncc1C(F)(F)F [Compound I-322, N-(5-fluoro-2-((2-((2-methoxy-5-methylpyridin-4-yl)amino)-5-(trifluoromethyl)pyrimidin-4-yl)amino)phenyl)acrylamide]
501 to 999 | 101 to 500 |  | C=CC(=O)Nc1cc(C)ccc1Nc1nc(Nc2cc(OC)ccc2C)ncc1C(F)(F)F [Compound I-341, N-(2-((2-((5-methoxy-2-methylphenyl)amino)-5-(trifluoromethyl)pyrimidin-4-yl)amino)-5-methylphenyl)acrylamide]
 | < 100 | 101 to 500 | C=CC(=O)Nc1cc(C)ccc1Nc1nc(Nc2cc(OC)ncc2C)ncc1C(F)(F)F [Compound I-90, N-(2-((2-((2-Methoxy-5-methylpyridin-4-yl)amino)-5-(trifluoromethyl)pyrimidin-4-yl)amino)-5-methylphenyl)acrylamide]
101 to 500 |  | < 100 | C=CC(=O)Nc1cc(C)ccc1Nc1nc(Nc2cc(N[C@H]3CC[C@@H](O)CC3)nc(OC)c2)ncc1C(F)(F)F [Compound I-326, N-(2-((2-((2-((cis-4-hydroxycyclohexyl)amino)-6-methoxypyridin-4-yl)amino)-5-(trifluoromethyl)pyrimidin-4-yl)amino)-5-methylphenyl)acrylamide]
